The structures appear in SMILES notation.

The target of this assay is Dopamine receptor (Bos taurus, UniProt Q95136+P20288). Put plainly: Evaluated for the inhibition of binding of [3H]DA (dopamine) to dopamine receptor in calf striatal homogenate.

The compound `NC1CCc2cc(O)c(O)cc2C1` (stereo unspecified) showed an IC50 of 6 nM.

The term IC50 denotes the concentration that inhibits the measured activity by half.

The record behind these values is ChEMBL document CHEMBL1122198, “Synthesis and dopamine receptor binding of exo- and endo-2-amino-6,7-dihydroxybenzonorbornene, rigid analogues of 2-amino-6,7-dihydroxytetrahydronaphthalene” (J Med Chem, 1982).
